Measurements reported in publication PMC10472371, “Discovery of E2730, a novel selective uncompetitive GAT1 inhibitor, as a candidate for anti‐seizure medication” (Epilepsia Open, 2023).
Entries after “also recorded” stand apart in the source; their conditions may differ.

Legend:
[1] = biological target: T1, hGAT3 (Homo sapiens, UniProt P48066); experiment: [3H]GABA uptake in hGAT3 stably expressing HEK293 cells; assay type: cell-based; settings: 50 μM [3H]GABA
T1 construct: expressed in transfected cells; host or cells: HEK293
T1 sequence (P48066 1-632): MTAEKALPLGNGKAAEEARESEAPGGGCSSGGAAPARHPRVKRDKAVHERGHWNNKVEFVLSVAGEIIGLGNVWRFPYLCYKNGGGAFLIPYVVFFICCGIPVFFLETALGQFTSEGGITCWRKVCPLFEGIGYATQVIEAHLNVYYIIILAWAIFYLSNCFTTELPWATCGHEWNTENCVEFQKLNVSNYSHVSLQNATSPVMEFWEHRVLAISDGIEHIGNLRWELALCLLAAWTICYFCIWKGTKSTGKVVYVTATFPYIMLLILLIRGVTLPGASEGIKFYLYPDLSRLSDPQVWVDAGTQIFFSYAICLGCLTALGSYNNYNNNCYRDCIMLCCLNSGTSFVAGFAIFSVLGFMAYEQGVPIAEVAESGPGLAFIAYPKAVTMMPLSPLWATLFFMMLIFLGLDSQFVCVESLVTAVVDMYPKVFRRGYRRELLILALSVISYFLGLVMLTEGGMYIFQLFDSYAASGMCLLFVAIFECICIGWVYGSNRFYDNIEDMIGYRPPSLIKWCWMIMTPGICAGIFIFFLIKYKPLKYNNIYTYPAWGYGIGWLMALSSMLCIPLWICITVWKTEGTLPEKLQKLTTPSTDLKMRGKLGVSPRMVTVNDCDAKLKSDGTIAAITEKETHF
Protocol: (§1) HEK293 cells stably expressing human GAT1 (hGAT1), GAT2 (hGAT2), GAT3 (hGAT3), or betaine/GABA transporter 1 (hBGT‐1) were plated onto 96‐well microtiter plates at a density of 4.0 × 10^4 cells/well in Dulbecco's Modified Eagle's Medium (DMEM, containing 10% fetal bovine serum, 100 units/mL penicillin, 100 μg/mL streptomycin, 1% non‐essential amino acid solution, and 25 mM HEPES) and incubated overnight at 37°C in a 5% CO2 atmosphere. After washing the cells with Hanks’ balanced salt solution (HBSS, containing 140 mg/L CaCl2, 100 mg/L MgCl2, 20 mM HEPES, and 10 mM NaOH), E2730 (0.0128–1000 μM) was added to the plate. Following the addition of 50 μM [^3H]GABA, cells were incubated for 5 minutes at 37°C in a 5% CO2 atmosphere and then washed with cold HBSS. Washed cells were incubated in a scintillator for 1 hour at room temperature, followed by radioactivity measurements using a liquid scintillation counter.

[2] = biological target: T2, hGAT1 (Homo sapiens, UniProt P30531); experiment: [3H]GABA uptake in hGAT1 stably expressing HEK293 cells; assay type: cell-based; settings: 50 μM [3H]GABA
T2 construct: expressed in transfected cells; host or cells: HEK293
T2 sequence (P30531 whole entry): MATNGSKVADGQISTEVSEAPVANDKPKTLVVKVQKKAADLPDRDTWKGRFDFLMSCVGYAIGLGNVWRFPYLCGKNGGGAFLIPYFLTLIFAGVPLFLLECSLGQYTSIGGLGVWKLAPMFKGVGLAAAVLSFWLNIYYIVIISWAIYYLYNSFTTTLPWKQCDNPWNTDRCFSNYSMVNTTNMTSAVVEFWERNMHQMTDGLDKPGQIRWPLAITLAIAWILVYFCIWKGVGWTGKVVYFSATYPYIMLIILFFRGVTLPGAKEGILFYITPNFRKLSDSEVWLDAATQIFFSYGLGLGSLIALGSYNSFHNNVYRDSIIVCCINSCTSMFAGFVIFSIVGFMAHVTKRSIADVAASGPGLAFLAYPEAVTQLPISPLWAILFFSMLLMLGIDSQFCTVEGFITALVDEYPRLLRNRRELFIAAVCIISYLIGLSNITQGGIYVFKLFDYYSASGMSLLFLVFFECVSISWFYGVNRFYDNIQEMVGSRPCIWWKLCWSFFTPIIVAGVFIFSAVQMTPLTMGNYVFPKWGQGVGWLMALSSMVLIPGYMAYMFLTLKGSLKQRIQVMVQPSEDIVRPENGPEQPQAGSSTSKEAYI
Protocol: as §1

[3] = tested on: Fmr1 KO mice; experiment: Audiogenic seizures in Fmr1 knockout mice (fragile X syndrome model); assay type: in vivo; settings: Mus musculus, oral, 1 hour before audio stimulation, read-out: ED50 (95% CI) for tonic-clonic seizures, audiogenic seizures
Protocol: Fragile X syndrome (FXS) is the most common single‐gene cause of autism spectrum disorder, typically due to mutations in the FMR1 gene; 10–18% of patients with FXS experience seizures.[8] The Fmr1 knockout (KO) mouse is an established animal model for FXS. E2730 (2.5–300 mg/kg) or vehicle was orally administered to Fmr1 KO mice (male, 20–27 days postnatal; Jackson Laboratory) 1 hour prior to drug evaluation. The mice were placed in a sound‐attenuating acoustic chamber and acclimated for 5 minutes and exposed to an audio stimulation (110 dB, 60‐second duration), and the behavior of the stimulated mice was video recorded and monitored for tonic–clonic seizures.

[4] = tested on: panel of 86 receptors, transporters, and ion channels; experiment: Binding panel assay; settings: tested at 30 and 300 μM
Protocol: In this binding panel assay, E2730 was tested at 30 and 300 μM.

[5] = biological target: T3, hGAT2 (Homo sapiens, UniProt Q9NSD5); experiment: [3H]GABA uptake in hGAT2 stably expressing HEK293 cells; assay type: cell-based; settings: 50 μM [3H]GABA
T3 construct: expressed in transfected cells; host or cells: HEK293
T3 sequence (Q9NSD5 1-602): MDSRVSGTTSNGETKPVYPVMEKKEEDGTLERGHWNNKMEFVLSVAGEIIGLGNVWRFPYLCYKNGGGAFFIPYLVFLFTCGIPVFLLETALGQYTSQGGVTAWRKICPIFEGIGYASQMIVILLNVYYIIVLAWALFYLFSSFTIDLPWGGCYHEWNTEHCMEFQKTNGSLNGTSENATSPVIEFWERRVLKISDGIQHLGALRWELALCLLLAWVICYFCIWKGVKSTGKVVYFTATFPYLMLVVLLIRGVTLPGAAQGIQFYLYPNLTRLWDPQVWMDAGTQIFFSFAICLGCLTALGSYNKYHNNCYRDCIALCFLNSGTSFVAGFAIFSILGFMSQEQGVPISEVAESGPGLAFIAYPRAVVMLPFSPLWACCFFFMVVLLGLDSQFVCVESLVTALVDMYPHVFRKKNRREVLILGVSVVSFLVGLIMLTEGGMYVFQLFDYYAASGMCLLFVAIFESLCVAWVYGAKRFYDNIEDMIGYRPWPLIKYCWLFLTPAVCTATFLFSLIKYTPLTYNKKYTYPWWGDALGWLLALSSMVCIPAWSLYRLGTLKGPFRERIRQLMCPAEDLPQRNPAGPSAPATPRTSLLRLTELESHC
Protocol: as §1

[6] = tested on: brain synaptosomal membranes of GAT1-deficient mice; experiment: [3H]E2730 binding in GAT1-deficient mouse brain; settings: 200 nM [3H]E2730
Protocol: Synaptosomal membrane extract was prepared from homozygous γ‐aminobutyric acid (GABA) transporter 1 (GAT1) KO (Homo), heterozygous GAT1 KO (Hetero), and the littermate wild‐type (WT) mice (male, 10 weeks old) using the same approach as described above. Synaptosomal membrane extract (0.4 mg protein/tube) was incubated with 200 nM [^3H]E2730 for 120 minutes at 4°C. Non‐specific binding was defined as the residual binding observed in the presence of 1 mM unlabeled E2730. The radioactivity of the synaptosome‐bound radioligand was measured in the same way as described above.

[7] = biological target: T4, hNav1.2 (Homo sapiens, UniProt Q99250); experiment: Veratridine-induced hNav1.2 activation in CHO cells, membrane potential assay; assay type: cell-based; settings: up to 100 μM, veratridine 50 μM
T4 construct: expressed in transfected cells; host or cells: CHO
T4 sequence (Q99250 whole entry): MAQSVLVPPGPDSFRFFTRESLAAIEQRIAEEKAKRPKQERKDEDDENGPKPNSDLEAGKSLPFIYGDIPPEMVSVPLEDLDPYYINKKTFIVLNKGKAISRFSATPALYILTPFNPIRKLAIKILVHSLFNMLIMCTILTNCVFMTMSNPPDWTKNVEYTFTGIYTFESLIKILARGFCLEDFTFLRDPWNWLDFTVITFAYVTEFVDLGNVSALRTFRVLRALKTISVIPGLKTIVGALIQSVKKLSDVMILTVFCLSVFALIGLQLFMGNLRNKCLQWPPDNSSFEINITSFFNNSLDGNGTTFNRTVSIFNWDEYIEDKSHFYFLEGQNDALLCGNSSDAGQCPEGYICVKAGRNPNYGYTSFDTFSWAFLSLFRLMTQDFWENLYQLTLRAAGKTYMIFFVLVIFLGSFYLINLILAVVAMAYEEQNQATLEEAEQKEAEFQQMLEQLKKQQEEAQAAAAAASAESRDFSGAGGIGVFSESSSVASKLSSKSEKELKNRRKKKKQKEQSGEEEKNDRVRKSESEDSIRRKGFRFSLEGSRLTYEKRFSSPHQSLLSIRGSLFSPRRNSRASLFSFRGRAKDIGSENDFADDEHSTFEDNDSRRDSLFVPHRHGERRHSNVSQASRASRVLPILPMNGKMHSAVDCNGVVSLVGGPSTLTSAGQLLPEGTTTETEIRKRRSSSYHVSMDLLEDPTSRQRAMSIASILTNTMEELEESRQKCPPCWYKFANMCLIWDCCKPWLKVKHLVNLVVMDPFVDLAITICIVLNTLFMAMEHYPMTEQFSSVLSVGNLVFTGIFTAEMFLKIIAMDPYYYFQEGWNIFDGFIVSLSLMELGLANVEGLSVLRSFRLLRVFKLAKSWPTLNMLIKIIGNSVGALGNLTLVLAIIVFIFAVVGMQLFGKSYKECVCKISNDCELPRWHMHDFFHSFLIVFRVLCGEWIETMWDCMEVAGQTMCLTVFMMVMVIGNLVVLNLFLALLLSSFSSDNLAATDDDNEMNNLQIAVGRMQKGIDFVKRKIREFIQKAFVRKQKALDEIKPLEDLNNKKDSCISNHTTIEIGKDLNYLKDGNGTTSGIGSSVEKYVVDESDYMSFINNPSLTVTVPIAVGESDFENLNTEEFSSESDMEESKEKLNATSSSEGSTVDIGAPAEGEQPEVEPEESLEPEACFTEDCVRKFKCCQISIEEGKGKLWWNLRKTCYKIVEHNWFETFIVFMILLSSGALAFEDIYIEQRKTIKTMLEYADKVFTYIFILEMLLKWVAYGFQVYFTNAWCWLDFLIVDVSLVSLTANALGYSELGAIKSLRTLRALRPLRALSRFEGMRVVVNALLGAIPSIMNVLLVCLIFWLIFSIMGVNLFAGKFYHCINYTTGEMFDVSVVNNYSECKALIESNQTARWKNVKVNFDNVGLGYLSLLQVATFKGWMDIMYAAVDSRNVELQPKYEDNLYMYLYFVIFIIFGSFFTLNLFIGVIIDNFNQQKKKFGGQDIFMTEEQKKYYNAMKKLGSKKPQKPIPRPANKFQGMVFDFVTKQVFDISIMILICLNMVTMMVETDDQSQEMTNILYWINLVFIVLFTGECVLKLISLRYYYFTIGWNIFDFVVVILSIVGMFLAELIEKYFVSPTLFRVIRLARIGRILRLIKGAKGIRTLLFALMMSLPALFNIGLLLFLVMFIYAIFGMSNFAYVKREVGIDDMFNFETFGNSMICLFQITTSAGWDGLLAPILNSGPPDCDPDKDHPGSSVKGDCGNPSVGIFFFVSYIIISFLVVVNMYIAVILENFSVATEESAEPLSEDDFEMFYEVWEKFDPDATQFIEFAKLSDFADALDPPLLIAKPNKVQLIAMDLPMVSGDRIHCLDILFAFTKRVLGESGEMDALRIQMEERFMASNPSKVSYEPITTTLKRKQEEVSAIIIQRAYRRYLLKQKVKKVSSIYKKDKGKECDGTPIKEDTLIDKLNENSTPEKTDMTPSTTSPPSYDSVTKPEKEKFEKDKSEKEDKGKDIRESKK
Protocol: Data represent the mean ± SEM of three independent experiments. Effects of E2730 and desipramine (Sigma-Aldrich, MO) on hNav1.2 activity were evaluated in CHO cells stably expressing hNav1.2 using a fluorescent-based membrane potential assay (Molecular Devices, CA). Activation of hNav1.2 was induced by veratridine (50 μM) and the change of fluorescence (excitation wavelength, 480 nm; emission wavelength, 540 nm) was recorded using Fluorescence Drug Screening System 6000 (Hamamatsu Photonics, Japan).

## NS(=O)(=O)N[C@H]1c2c(F)cc(F)cc2CC1(F)F [E2730]
[1]
  IC50: > 1000 µM
[2]
  IC50: 1.1 µM
[3]
  ED50: 17.1 mg/kg
[4]
  binding in panel assay: no significant binding
[5]
  IC50: > 1000 µM
[6]; heterozygous GAT1 KO (Hetero) mice
  proportion of bound [3H]E2730 relative to WT mice: 54.0%
[6]; homozygous GAT1 KO (Homo) mice
  proportion of bound [3H]E2730 relative to WT mice: 8.0%
[7]
  effect on hNav1.2 activation: did not inhibit; also recorded: did not directly affect
